Laboratory results reported in patent US20220251611A1, “BENZALDEHYDE PRODUCTION METHOD” (AJINOMOTO CO., INC., priority 2019, published 2022).
Where two headings read alike, the source gives them in different places.

Key:
[1] = test system: HmaS At-His purified enzyme (HMAS); settings: for Generated amount of mandelate: 10 mM sodium phenylpyruvate, 25° C., 15 minutes, no hydrogen peroxide taken as 100%
Protocol: Cells were collected from 10 mL of the HmaS At culture broth obtained in Example 2 by centrifugation, suspended in 2 mL of xTractor Buffer (Takara Bio), and allowed to stand at room temperature for 20 minutes, to disrupt the cells. The cell residue was removed from the disruptant by centrifugation, and the obtained supernatant was used as a soluble fraction. The soluble fraction was applied to a His-tag protein purification column HisTALON Superflow Cartridges (Takara Bio, CV=1 mL) equilibrated with a buffer containing 20 mM Tris-HCl (pH 8.0), 300 mM NaCl, and 10 mM Imidazole, to adsorb proteins on the carrier. Proteins not adsorbed on the carrier (non-adsorbed proteins) were washed off with a buffer containing 20 mM Tris-HCl (pH 8.0), 300 mM NaCl, and 10 mM Imidazole, and then a buffer containing 20 mM Tris-HCl (pH 8.0), 300 mM NaCl, and 150 mM Imidazole was flowed at 1.5 mL/min, to elute the adsorbed proteins. The eluted fractions were collected and concentrated using Amicon Ultra-15 30 k (Millipore). The concentrate was diluted with 20 mM of Tris-HCl (pH 7.6), and hereinafter used as a HmaS At-His purified enzyme.
A reaction mixture (0.2 mL) containing 10 mM of sodium phenylpyruvate, 0.01 mM of iron sulfate, 10 mM of trisodium citrate, 10 mM of sodium ascorbate, 100 mM of Tris-HCl (pH 7.0), 0.02 mg/mL of the HmaS At-His purified enzyme, and 0 to 1 mM of hydrogen peroxide was put into a 1.5 mL-volume tube, and a reaction was carried out at 25° C. Similarly, a reaction without addition of HmaS At-His was carried out. After 15 minutes, a 0.05 mL aliquot of the reaction mixture was mixed with 0.2 mL of a reaction stop solution (1% phosphoric acid), and subjected to HPLC analysis. HPLC analysis was carried out in the same manner as Example 5, and mandelate enzymatically-generated was quantified. The amount of hydrogen peroxide added and the generated amount of mandelate are shown in Table 3, wherein the generated amount of mandelate in the case of not adding hydrogen peroxide was taken as 100%.

[2] = test system: benzaldehyde generation from L-Phe by AAD, HmaS At, Md1B and Md1C concentrates; assay: Synthesis of benzaldehyde from L-Phe with addition of culture broth of catalase-expressing strain; assay type: biochemical, E. coli; settings: 50 mM L-Phe, 0.1 mL of 5-fold Cat concentrate in 1 mL reaction mixture, 25° C., 20 hours, then Md1C concentrate 4 hours; HPLC; Ctrl 9.1
Protocol: A 10 mL aliquot of the AAD culture broth obtained in Example 1 was centrifuged, 8 mL of the supernatant was removed, and the cells were suspended in the remaining culture supernatant, to obtain a 5-fold concentrated culture broth. This was used for the following reactions as an AAD concentrate. Similarly, 5-fold concentrates were prepared from the HmaS At culture broths, Md1B culture broth, and Md1C culture broth obtained in Examples 2 to 4, and used for the following reactions as a HmaS At concentrates, Md1B concentrate, and Md1C concentrate. A 1 mL aliquot of the Cat 1 culture broth obtained in Example 6 was centrifuged, 0.8 mL of the supernatant was removed, and the cells were suspended in the remaining culture supernatant, to obtain a 5-fold concentrated culture broth. This was used for the following reactions as a Cat 1 concentrate. Similarly, 5-fold concentrates were prepared from the Cat 2 to 15 culture broths and the Ctrl culture broth, and used for the following reactions as Cat 2 to 15 concentrates and a Ctrl concentrate.
After 20 hours, the reaction mixture was centrifuged, a 0.49 mL aliquot of the supernatant was mixed with 0.01 mL of the Md1C concentrate, and the resultant mixture was put into a test tube and shaken at 25° C. […]

Compound: OO [Hydrogen peroxide, hydrogen peroxide]
- Generated amount of mandelate ([1]; 0.001 mM hydrogen peroxide added): 103%
- Generated amount of mandelate ([1]; 0.01 mM hydrogen peroxide added): 94%
- Generated amount of mandelate ([1]; 0.1 mM hydrogen peroxide added): 39%
- Generated amount of mandelate ([1]; 1 mM hydrogen peroxide added): 1%
- Effect on HMAS activity ([1]; 0.01 to 1 mM of hydrogen peroxide added): inhibits HMAS activity

Compound: Cat 2: Cat HPII derived from E. coli (SEQ ID NO: 6), concentrated culture broth of expressing strain
- Benzaldehyde [2]: 10.7 mM
